Assay results published in patent publication US20060025589A1, “2-Thiohydantoine derivative compounds and use thereof for the treatment of diabetes” (priority 2002, published 2006).

system: male C57BL/KsJ-db/db mice; assay: in vivo reduction of serum glucose and triglyceride levels in diabetic db/db mice; settings: gavage, suspended in 3% gum arabic, twice daily for 10 days plus morning of day 11, doses below 200 mg/kg, generally 10 mg/kg, blood taken 4 h after last administration
Method: The compounds of formula (I) according to the invention were subjected to pharmacological tests in order to evaluate their potential to reduce the blood glycemia level.
The in vivo studies were carried out on male C57BL/KsJ-db/db mice originating from CERJ (Route des Chênes Secs—BP 5—53940 Le Genest St Isle—France).
The animals are accommodated in cages fitted with a filter lid and have free access to an irradiated standard food and to filtered drinking water. All the equipment used (cages, feeding bottles, pipettes and shavings) is sterilized by autoclaving, irradiation or immersion in a disinfectant. The temperature of the room is maintained at 23±2° C. The light-dark cycle is 12 h.
During the acclimatization period, each animal is tagged with an electronic chip, which is implanted under anesthesia effected by the inhalation of a CO2/O2 mixture.
Groups of 8 to 10 mice are formed and the treatments start when the animals are 9 to 11 weeks old. The products are suspended in gum arabic at a concentration of 3% and administered to the animals by means of a gavage cannula for 10 days at a rate of two administrations per day, as well as on the morning of day 11. The products are tested at doses below 200 mg/kg and generally of 10 mg/kg. The animals in the control group receive the dosage vehicle only.
A blood sample is taken before treatment and then four hours after the last administration of the product. The animals are anesthetized by the inhalation of a CO2/O2 mixture and the blood is taken from the retro-orbital sinus, collected in a dry tube and kept cold. The serum is separated off by centrifugation at 2800 g (15 minutes, 4° C.) during the hour following sampling. The samples are kept at −20° C. until they are analyzed.
The serum glucose and triglyceride levels are determined on a Konélab 30 analyzer by means of Konélab kits. The animals whose glycemia before treatment was below 3 g/l are systematically excluded from the study.
For each group, the mean glucose and triglyceride levels after treatment are calculated and the results are expressed as the percentage variation of these means relative to the control group after verification of the homogeneity of the means before treatment.

Structure (SMILES) | Gly (decrease in the glycemia level; percentage variation of mean serum glucose relative to the control group) [%] | TG (decrease in the triglyceride level; percentage variation of mean serum triglycerides relative to the control group) [%]
CC1C(=O)N(c2cccc(F)c2)C(=S)N1c1ccc(Oc2ccccc2)cc1 (centres unmarked) [Example 20, 3-(3-Fluorophenyl)-5-methyl-1-(4-phenoxyphenyl)-2-thioxoimidazolidin-4-one] | −47 | −47
COc1ccc(N2C(=O)C(C)(C)N(c3ccc(Oc4ccccc4)cc3)C2=S)cc1 [Example 30, 5,5-Dimethyl-3-(4-methoxyphenyl)-1-(4-phenoxyphenyl)-2-thioxoimidazolidin-4-one] | −54 | −53
COc1ccc(N2C(=O)C(C)N(c3ccc(OCc4ccccc4)cc3)C2=S)cc1 (centres unmarked) [Example 139] | −36 | −32
CC1C(=O)N(c2ccc(Cc3ccccc3)cc2)C(=S)N1c1ccccc1 (centres unmarked) [Example 185, 5-Methyl-1-phenyl-3-[4-(phenylmethyl)phenyl]-2-thioxoimidazolidin-4-one] | −57 | −39
C=CCN1CC(=O)N(c2ccc(Cc3ccccc3)cc2)C1=S [Example 190, 3-[4-(Phenylmethyl)phenyl]-1-(2-propenyl)-2-thioxoimidazolidin-4-one] | −58 | −53
COc1ccc(N2C(=O)CN(c3ccc(Cc4ccccc4)cc3)C2=S)cc1 [Example 195, 3-(4-Methoxyphenyl)-1-[4-(phenylmethyl)phenyl]-2-thioxoimidazolidin-4-one] | −53 | −46
COc1ccc(N2C(=O)C(C)N(c3ccc(Cc4ccccc4)cc3)C2=S)cc1 (centres unmarked) [Example 200, 3-(4-Methoxyphenyl)-5-methyl-1-[4-(phenylmethyl)phenyl]-2-thioxoimidazolidin-4-one] | −63 | −58
